Data from ChEMBL document CHEMBL1201862, “PubChem BioAssay data set” (2004).
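How tested: cells in 96-well plates exposed to compound for 48 hours at five concentrations. At the GI50, growth is halved.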 Active and inactive are the calls of the source. No stated cut-off is given here; in the data, active = GI50 up to about 1.1 µM and inactive = higher.

Tests used:
Assay in all cases: NCI-60 cell line screen, 48 h
SR = tested on: SR
NCI/ADR-RES = tested on: NCI/ADR-RES
HL-60 = tested on: HL-60
SK-OV-3 = tested on: SK-OV-3
UACC-257 = tested on: UACC-257
SF-268 = tested on: SF-268
SK-MEL-28 = tested on: SK-MEL-28
UO-31 = tested on: UO-31
NCI-H226 = tested on: NCI-H226
CCRF-CEM = tested on: CCRF-CEM
HCT-116 = tested on: HCT-116
IGROV-1 = tested on: IGROV-1
ACHN = tested on: ACHN
TK-10 = tested on: TK-10
SN12C = tested on: SN12C
OVCAR-5 = tested on: OVCAR-5
MDA-N = tested on: MDA-N
A549 = tested on: A549

Compound	GI50 (SR)	GI50 (NCI/ADR-RES)	GI50 (HL-60)	GI50 (SK-OV-3)	GI50 (UACC-257)	GI50 (SF-268)	GI50 (SK-MEL-28)	GI50 (UO-31)	GI50 (NCI-H226)	GI50 (CCRF-CEM)	GI50 (HCT-116)	GI50 (IGROV-1)	GI50 (ACHN)	GI50 (TK-10)	GI50 (SN12C)	GI50 (OVCAR-5)	GI50 (MDA-N)	GI50 (A549)
CCOC(=O)C(C)c1nc2cc3cccnc3c(Cl)c2[nH]c1=O (configuration not stated)	73.6 µM (inactive)	> 100 µM (inactive)	> 100 µM (inactive)	> 100 µM (inactive)	> 100 µM (inactive)	86.1 µM (inactive)	> 100 µM (inactive)	> 100 µM (inactive)	> 100 µM (inactive)	> 100 µM (inactive)	> 100 µM (inactive)	52.6 µM (inactive)	94.6 µM (inactive)	> 100 µM (inactive)				
O=C1Nc2ccccc2/C1=N/Nc1nc(-c2ccc([N+](=O)[O-])cc2)cs1		15.6 µM (inactive)		63.1 µM (inactive)	32.1 µM (inactive)		29.7 µM (inactive)	11.4 µM (inactive)	38.9 µM (inactive)		29.6 µM (inactive)	18.7 µM (inactive)	13.3 µM (inactive)	17.5 µM (inactive)	27 µM (inactive)	22 µM (inactive)	27 µM (inactive)	30.1 µM (inactive)
O=C1CN(c2ccccc2)C(=O)CN1NCNN1CC(=O)N(c2ccccc2)CC1=O	> 100 µM (inactive)		> 100 µM (inactive)	> 100 µM (inactive)	> 100 µM (inactive)	> 100 µM (inactive)	> 100 µM (inactive)	> 100 µM (inactive)		> 100 µM (inactive)	> 100 µM (inactive)	> 100 µM (inactive)	> 100 µM (inactive)	> 100 µM (inactive)	> 100 µM (inactive)	> 100 µM (inactive)	> 100 µM (inactive)	> 100 µM (inactive)
CN(C)Cc1c(O)ccc2c1c1c(n2C)C(=O)c2ccccc2C1=O	1.06 µM (active)	2.73 µM (inactive)	7.38 µM (inactive)	20.2 µM (inactive)	5.24 µM (inactive)	7.85 µM (inactive)	4.69 µM (inactive)	4.01 µM (inactive)	11 µM (inactive)	0.492 µM (active)	9.95 µM (inactive)	3.73 µM (inactive)	2.31 µM (inactive)	7.41 µM (inactive)	3.62 µM (inactive)	4.16 µM (inactive)		2.51 µM (inactive)
O=C(CSCC(=O)N/N=C/c1ccc(F)cc1)N/N=C/c1ccc(F)cc1	> 100 µM (inactive)	> 100 µM (inactive)	> 100 µM (inactive)	> 100 µM (inactive)	> 100 µM (inactive)	> 100 µM (inactive)	> 100 µM (inactive)	48.6 µM (inactive)	> 100 µM (inactive)		> 100 µM (inactive)	> 100 µM (inactive)	> 100 µM (inactive)	> 100 µM (inactive)	> 100 µM (inactive)	> 100 µM (inactive)		54.8 µM (inactive)
CC(C)CC(O)P(=O)(O)O.NC1CCCCC1 (configuration not stated)			> 100 µM (inactive)	> 100 µM (inactive)	> 100 µM (inactive)		> 100 µM (inactive)	> 100 µM (inactive)	> 100 µM (inactive)		> 100 µM (inactive)		> 100 µM (inactive)	> 100 µM (inactive)	> 100 µM (inactive)	> 100 µM (inactive)	> 100 µM (inactive)	> 100 µM (inactive)
C[N+](C)(C)c1ncnc2c1ncn2C1CCCO1 (configuration not stated)		> 100 µM (inactive)	56.4 µM (inactive)	> 100 µM (inactive)	> 100 µM (inactive)	> 100 µM (inactive)	> 100 µM (inactive)	> 100 µM (inactive)	> 100 µM (inactive)	> 100 µM (inactive)	> 100 µM (inactive)	> 100 µM (inactive)	> 100 µM (inactive)	> 100 µM (inactive)	> 100 µM (inactive)	> 100 µM (inactive)	> 100 µM (inactive)	> 100 µM (inactive)
C/C=C\C(CC(=O)NCCc1c[nH]c2ccccc12)CC(=O)OC (configuration not stated)		> 100 µM (inactive)		> 100 µM (inactive)	> 100 µM (inactive)	> 100 µM (inactive)	> 100 µM (inactive)	> 100 µM (inactive)			> 100 µM (inactive)	> 100 µM (inactive)	> 100 µM (inactive)	> 100 µM (inactive)		> 100 µM (inactive)	> 100 µM (inactive)	> 100 µM (inactive)
CC(=O)C(C(=O)c1ccc(C)cc1)[C@H]1OC(C)(C)O[C@H]1[C@H]1COC(C)(C)O1 (some centres not stated)	1.42 µM (inactive)	4.54 µM (inactive)		10.3 µM (inactive)	5.31 µM (inactive)	2.81 µM (inactive)	6.18 µM (inactive)	6.98 µM (inactive)	14.5 µM (inactive)		2.25 µM (inactive)	3.17 µM (inactive)	6.15 µM (inactive)	7.73 µM (inactive)	1.9 µM (inactive)	8.39 µM (inactive)	1.85 µM (inactive)	11.2 µM (inactive)
COP(=O)(OC)C(O)CC(C)C (configuration not stated)			> 100 µM (inactive)	> 100 µM (inactive)	> 100 µM (inactive)		> 100 µM (inactive)	> 100 µM (inactive)	> 100 µM (inactive)		> 100 µM (inactive)		> 100 µM (inactive)	> 100 µM (inactive)	> 100 µM (inactive)	> 100 µM (inactive)	> 100 µM (inactive)	> 100 µM (inactive)
COc1ccc(/C=c2/sc3n(c2=O)C(c2ccccc2)C2(O)CCCCC2N=3)cc1 (configuration not stated)	> 12.5 µM (inactive)		> 12.5 µM (inactive)		> 12.5 µM (inactive)	> 12.5 µM (inactive)	> 12.5 µM (inactive)	> 12.5 µM (inactive)	> 12.5 µM (inactive)	> 12.5 µM (inactive)	> 12.5 µM (inactive)	> 12.5 µM (inactive)	> 12.5 µM (inactive)	> 12.5 µM (inactive)		> 12.5 µM (inactive)	> 12.5 µM (inactive)	> 12.5 µM (inactive)
ClCCc1ccccc1CC1=NCCc2ccccc21	> 100 µM (inactive)	21.9 µM (inactive)	31.3 µM (inactive)	44.7 µM (inactive)	34 µM (inactive)	29 µM (inactive)	47.6 µM (inactive)	14.4 µM (inactive)	22.5 µM (inactive)	39.9 µM (inactive)	32.5 µM (inactive)	32 µM (inactive)	30.8 µM (inactive)	41.7 µM (inactive)	40.7 µM (inactive)	40.6 µM (inactive)		33.2 µM (inactive)
CN1c2ccccc2C(=O)Nc2cnc(Cl)nc21		82.6 µM (inactive)	> 100 µM (inactive)	> 100 µM (inactive)	> 100 µM (inactive)		> 100 µM (inactive)	> 100 µM (inactive)	> 100 µM (inactive)	> 100 µM (inactive)	> 100 µM (inactive)	> 100 µM (inactive)	> 100 µM (inactive)	> 100 µM (inactive)	66.7 µM (inactive)	> 100 µM (inactive)	> 100 µM (inactive)	> 100 µM (inactive)
O=c1c(Cc2ccc(Cl)cc2)nnc2sc(-c3ccc(-c4ccc(F)c(Cl)c4)o3)nn12		56.9 µM (inactive)	43.7 µM (inactive)	> 100 µM (inactive)	97.3 µM (inactive)	76.6 µM (inactive)	> 100 µM (inactive)	33.6 µM (inactive)	> 100 µM (inactive)	45.7 µM (inactive)	29.7 µM (inactive)	72.3 µM (inactive)	35.7 µM (inactive)	> 100 µM (inactive)	42.7 µM (inactive)	56.1 µM (inactive)	95.3 µM (inactive)	51.3 µM (inactive)
Cc1cc(C)c2nccc(NCCCN(C)C)c2c1[N+](=O)[O-]	30.6 µM (inactive)		25.9 µM (inactive)	> 100 µM (inactive)	17.1 µM (inactive)	33 µM (inactive)	19.6 µM (inactive)	20.3 µM (inactive)		37.2 µM (inactive)	30.9 µM (inactive)	19.6 µM (inactive)	34.9 µM (inactive)	30.8 µM (inactive)	40.9 µM (inactive)	44 µM (inactive)	38.8 µM (inactive)	30.8 µM (inactive)
O=C1c2cccc(O)c2C(=O)c2c(OC3OC(CO)C(O)C(O)C3O)cccc21 (configuration not stated)	32.4 µM (inactive)	17 µM (inactive)		48.2 µM (inactive)	19.5 µM (inactive)	22.9 µM (inactive)	> 100 µM (inactive)	35.2 µM (inactive)	> 100 µM (inactive)		19.8 µM (inactive)	39.2 µM (inactive)	61.7 µM (inactive)	40.4 µM (inactive)	24.7 µM (inactive)	51.6 µM (inactive)	28.6 µM (inactive)	27.3 µM (inactive)
CC(=O)Oc1ccc(/C=C/C(=O)O[C@@H](C(=O)O)[C@@H](OC(=O)/C=C/c2ccc(OC(C)=O)c(OC(C)=O)c2)C(=O)O)cc1OC(C)=O	> 100 µM (inactive)	> 100 µM (inactive)		> 100 µM (inactive)	> 100 µM (inactive)	> 100 µM (inactive)	> 100 µM (inactive)	> 100 µM (inactive)		> 100 µM (inactive)	> 100 µM (inactive)	> 100 µM (inactive)	> 100 µM (inactive)	> 100 µM (inactive)	> 100 µM (inactive)	> 100 µM (inactive)	> 100 µM (inactive)	> 100 µM (inactive)
